Measured values from PMC6315395, “New Lipophenol Antioxidants Reduce Oxidative Damage in Retina Pigment Epithelial Cells” (Antioxidants, 2018).
Each block holds one compound with its values, some of them ahead of it.

Tests used:
[1] = system: Abca4 −/− Rdh8 −/− mice; design: method as in PMID 27992460; conditions: treated orally for three months; cited from earlier work
[2] = system: porcine primary RPE cells; design: method as in PMID 27992460; conditions: at 20 µM; cited from earlier work
[3] = system: RPE cells; conditions: 100 µM; cited from earlier work
[4] = system: Balb-c male mice photoreceptors; design: method as in PMID 29541735; conditions: cited from earlier work
[5] = system: ARPE-19 cells; assay: Protection against ROS production (DCFDA probe, H2O2 stress); assay type: cell-based, human; conditions: for IC50: H2O2 600 µM for 4 h, DCFDA, mean ± SD, n ≥ 3, read-out: ROS production IC50 (concentration needed to inhibit 50% of the ROS induced by H2O2)
Protocol: ROS activity was measured in ARPE-19 cells with dichlorofluorescein diacetate (DCFDA) reagent. DCFDA is deacetylated by cellular esterases to dichlorofluorescein (DCFH), which can then be oxidized by ROS into the fluorophore 2′,7′–dichlorofluorescein (DCF). ARPE-19 cells were plated into black, optically clear bottom 96-well plates (4 × 10^4 cells/well) and cultured for 24 h to reach confluence before the drug treatment. The cell cultures were incubated with 2 µM of DCFDA for 45 min in DMEM/F12 medium without phenol red + 1% FBS. The cells were rinsed and incubated with the medium containing lipophenols at different concentrations (0–80 µM) for 1 h. Then, H2O2 was added to a final concentration of 600 µM for 4 h, followed by the measurement of DCF production by fluorescence spectroscopy with excitation wavelength at 485 nm and emission wavelength at 535 nm. […] Control cells were incubated with DMSO (0.2%) ± DCFDA ± H2O2. The percentage of ROS produced was calculated as [(fluorescence of sample)/(fluorescence of control)] × 100%. The results are expressed in percentage of ROS produced normalized with control conditions in the absence of lipophenol and presence of stressor. When a dose-dependent inhibition was observed, IC50 was calculated.

[6] = system: ARPE-19 cells; assay: Cytotoxicity of lipophenols (MTT cell viability, 24 h); assay type: cell-based, human; conditions: for Toxicity in ARPE-19 cells (in words): tested 0–160 µM
Protocol: (§1) Cell viability was determined by MTT colorimetric assay. The cells were incubated for 2 h with MTT reagent (0.5 mg/mL). During this incubation time, dehydrogenases of the living cells reduce the MTT to insoluble purple formazan. The absorbance at 570 nm and 655 nm of individual wells of the cell was measured using a microplate reader (BioRad 550, USA). […] The percentage of the viable cells was calculated as [(OD570 sample − OD655 sample)/(OD570 control − OD655 control)] × 100%.
(§2) ARPE-19 cells were plated into 96-well plates (4 × 10^4 cells/well) and cultured for 24 h to reach confluence before lipophenol treatment. The cell cultures were treated with serum free medium containing the lipophenols at different concentrations (0–160 µM) for 24 h. Control cells were incubated with DMSO (0.2%). The viability of the cells was determined using MTT colorimetric assay as described above and expressed in percentage of viable cells normalized with control conditions in the absence of lipophenols. When a dose-dependent toxicity was observed, CC50 was calculated.

[7] = as above; assay type: cell-based, human; conditions: human, ARPE-19 cells; for CC50 at 24 h: serum free medium, 0–160 µM, MTT, mean ± SD, n ≥ 3, read-out: ARPE-19 CC50 (concentration of lipophenol killing 50% of ARPE-19 cells)
Protocol: as §1, §2

[8] = system: ARPE-19 cells; assay: Protection against photo-oxidized A2E toxicity (MTT cell viability); assay type: cell-based, human; conditions: for IC50: 1 h pre-treatment, A2E 20 µM 6 h, blue light 30 min, mean ± SD, n ≥ 3, read-out: Protection against A2E toxicity IC50 (concentration needed to inhibit 50% of the toxicity induced by photo-oxidized A2E); for Decrease of the toxic effect of A2E: at 8 µM; for Cells protected from photo-oxidized A2E: at higher concentrations; for Maximum cell viability under photo-oxidized A2E: between 20 and 40 µM; for Potency against photo-oxidized A2E relative to natural quercetin: ratio of IC50
Protocol: as §1
ARPE-19 cells were plated into 96-well plates (4 × 10^4 cells/well) and cultured for 24 h to reach confluence before lipophenol treatment. The cell cultures were treated with serum free DMEM/F12 medium without phenol red containing lipophenols at different concentrations (0–80 µM) for 1 h. Then A2E was added to a final concentration of 20 µM for 6 h before rinsing with medium. Control cells were incubated with DMSO (0.2%) with or without A2E. The cells were exposed to intense blue light (4600 LUX) for 30 min to induce phototoxicity of A2E and incubated at 37 °C. The cell viability was determined 16–20 h later using a MTT colorimetric assay. Results are expressed in percentage of viable cells normalized with control conditions in the absence of lipophenols and stressor. When a dose-dependent efficiency was observed, IC50 was calculated.

[9] = system: ARPE-19 cells; design: method as in PMID 27659166; conditions: 60 µM, cells treated twice for 3 days before A2E stress; cited from earlier work
[10] = Homo sapiens, ARPE-19, 1 h pre-incubation

Structure (SMILES): CC(/C=C/C=C(C)/C=C/C(=O)O)=C\C=C\C=C(C)\C=C\C=C(C)\C=C\C(=O)O (stereo in doubt) [Norbixin]
- Effect on A2E in mice (in words) [1]: able to reduce A2E
- Protection against A2E illuminated [2]: 90–100%

Structure (SMILES): O=c1c(O[C@@H]2OC[C@H](O)[C@H](O)[C@H]2O)c(-c2ccc(O)c(O)c2)oc2cc(O)cc(O)c12 [3-quercetin glycoside, Quercetin-3-O-α-L-arabinopyranoside]
- Cell viability of RPE cells [3]: ~ 90%
- Protection of photoreceptors against blue light damages (in words) [4]: protect

- IC50 [5, 10]: 5.93 ± 0.06 µM
Structure (SMILES): Oc1cc(O)c2c(c1)O[C@H](c1ccc(O)c(O)c1)[C@@H](O)C2 [(+)-catechin, reference compound]
- Toxicity in ARPE-19 cells (in words) ([6]; 24 h): no apparent toxicity
- CC50 at 24 h [7]: > 160 µM

- IC50 [5, 10]: 10.6 ± 4.41 µM
Structure (SMILES): CCCCC/C=C\C/C=C\CCCCCCCC(=O)O[C@H]1Cc2c(O)cc(O)cc2O[C@@H]1c1ccc(O)c(O)c1 [Cat-3-LA (9), catechin-3-LA]
- Concentration from which cytotoxicity on ARPE-19 starts ([6]; 24 h, MTT): ≥ 80 µM
- CC50 at 24 h [7]: 149 ± 6.61 µM

- IC50 [5, 10]: > 80 µM
Structure (SMILES): CCCCC/C=C\C/C=C\CCCCCCCC(=O)Oc1cc(O)cc(O)c1 [Phloro-LA (3), Phloroglucinol-LA]
- ROS scavenging potency relative to natural homologue (phloroglucinol) ([5]; ratio of ROS IC50): nine times less potent
- CC50 at 24 h [7]: > 160 µM

- IC50 [5, 10]: 10.2 ± 3.44 µM
Structure (SMILES): Oc1cc(O)cc(O)c1 [Phloroglucinol, phloroglucinol, reference compound]
- CC50 at 24 h [7]: > 160 µM

- IC50 ([5]; 1 h pre-incubation): 61.7 ± 7.43 µM
- IC50 [5, 10]: ~60 µM
- melting point: 180 °C
Structure (SMILES): CC/C=C\C/C=C\C/C=C\CCCCCCCC(=O)Oc1c(-c2ccc(O)c(O)c2)oc2cc(O)cc(O)c2c1=O [Quer-3-ALA (14), quercetin-3-ALA]
- CC50 at 24 h [7]: 69.4 ± 3.46 µM

- IC50 ([5]; 1 h pre-incubation): 59.4 ± 18.8 µM
- IC50 [5, 10]: ~60 µM
Structure (SMILES): CC/C=C\C/C=C\C/C=C\C/C=C\C/C=C\C/C=C\CCC(=O)Oc1c(-c2ccc(O)c(O)c2)oc2cc(O)cc(O)c2c1=O [Quer-3-DHA (15)]
- Toxicity in ARPE-19 cells (in words) ([6]; 24 h): slight toxicity
- CC50 at 24 h [7]: 134 ± 8.09 µM

- IC50 ([5]; 1 h pre-incubation): 52.2 ± 10.8 µM
- IC50 [5, 10]: ~60 µM
Structure (SMILES): CCCCC/C=C\C/C=C\CCCCCCCC(=O)Oc1c(-c2ccc(O)c(O)c2)oc2cc(O)cc(O)c2c1=O [Quer-3-LA (13), quercetin-3-LA]
- IC50 ([8]; Homo sapiens, ARPE-19): 8.24 µM
- Decrease of the toxic effect of A2E [8]: 50%
- Cells protected from photo-oxidized A2E [8]: up to 90%
- Maximum cell viability under photo-oxidized A2E [8]: 88–89%
- Potency against photo-oxidized A2E relative to natural quercetin [8]: three times more potent
- Cell survival in cytotoxicity assay ([6]; at 80 µM, Figure 8, 100% = non-treated control cells): 150%
- Toxicity in ARPE-19 cells (in words) ([6]; 24 h): no toxicity was observed up to 160 µM
- CC50 at 24 h [7]: > 160 µM

- IC50 [5, 10]: 9.44 ± 2.37 µM
- melting point: 235.8 °C
Structure (SMILES): CC/C=C\C/C=C\C/C=C\CCCCCCCC(=O)Oc1cc(O)c2c(=O)c(O)c(-c3ccc(O)c(O)c3)oc2c1 [Quer-7-ALA (18), quercetin-7-ALA]
- IC50 ([8]; Homo sapiens, ARPE-19): 8.45 µM
- Decrease of the toxic effect of A2E [8]: 50%
- Cells protected from photo-oxidized A2E [8]: up to 90%
- Maximum cell viability under photo-oxidized A2E [8]: 88–89%
- Potency against photo-oxidized A2E relative to natural quercetin [8]: three times more potent
- ROS scavenging potency relative to analogue 3-ALA ([5]; ratio of ROS IC50): 6 times
- CC50 at 24 h [7]: > 160 µM
- viability at 24 h ([7]; up to 160 µM, Figure 8, 100% = non-treated control cells): 128%

- IC50 [5, 10]: 6.82 ± 0.73 µM
Structure (SMILES): O=c1c(O)c(-c2ccc(O)c(O)c2)oc2cc(O)cc(O)c12 [Quercetin, quercetin, reference compound]
- IC50 ([8]; Homo sapiens, ARPE-19): 23.9 µM
- viability at 40 µM ([8]; Homo sapiens, ARPE-19, at 40 µM, read-out: Maximum cell viability under photo-oxidized A2E): 78%
- Toxicity in ARPE-19 cells (in words) ([6]; 24 h): moderate toxicity
- CC50 at 24 h [7]: 111 ± 4.92 µM

- IC50 [5, 10]: > 80 µM
Structure (SMILES): CCCCC/C=C\C/C=C\CCCCCCCC(=O)Oc1ccc(/C=C/c2cc(O)cc(O)c2)cc1 [Resv-4′-LA (8), resveratrol-4′-LA]
- ROS scavenged ([5]; at 80 µM, Figure S1): 40%
- CC50 at 24 h [7]: > 160 µM

- IC50 [5, 10]: 7.4 ± 0.51 µM
Structure (SMILES): Oc1ccc(C=Cc2cc(O)cc(O)c2)cc1 [Resveratrol, 3,4′,5-trihydroxystilbene, reference compound]
- CC50 at 24 h [7]: > 160 µM
- Protection against photo-oxidized A2E (in words, compared with 88–89% cell viability) [9]: Same level of protection

Structure (SMILES): Oc1cc(O)cc(/C=C/c2ccc(O)c(O)c2)c1 [piceatannol]
- Protection against photo-oxidized A2E (in words, compared with 88–89% cell viability) [9]: Same level of protection
